In brackets after ≈: the same amount, converted by molar mass.
What was measured:
Assay type in all cases: cell-based, Mycobacterium tuberculosis
[1] = test system: Mtb strain A3 tatB
[2] = test system: Mtb strain B3 tatA
[3] = test system: Mtb strain B2 tatC
[4] = test system: Mtb strain B1 tatC
[5] = test system: Mtb strain A6 tatB
[6] = test system: Q112-resistant Mtb strains; experiment: microbe, parasite or virus in culture

## Capreomycin
[1]
  MIC A3 tatB: 0.78 µM
[2]
  MIC B3 tatA: 0.78 µM
[3]
  MIC B2 tatC: 1.2 µM
[4]
  MIC B1 tatC: 0.78 µM
[5]
  MIC A6 tatB: 1.2 µM

## C[C@]1(COc2ccc(N3CCC(Oc4ccc(OC(F)(F)F)cc4)CC3)cc2)Cn2cc([N+](=O)[O-])nc2O1 [Delamanid]
[6]
  MIC increase versus wild-type: 3–12 fold

## CC(C)/N=c1\cc2n(-c3ccc(Cl)cc3)c3ccccc3nc-2cc1Nc1ccc(Cl)cc1 [Clofazimine]
[2]
  resistance (MIC increase) versus wild-type: 4 fold

## CO[C@H]1/C=C/O[C@@]2(C)Oc3c(C)c(O)c4c(O)c(c(/C=N/N5CCN(C)CC5)c(O)c4c3C2=O)NC(=O)/C(C)=C\C=C\[C@H](C)[C@H](O)[C@@H](C)[C@@H](O)[C@@H](C)[C@H](OC(C)=O)[C@@H]1C [Rifampicin]
[6]
  factor of MIC decrease (hypersensitivity) versus wild-type: 3–6 factor

## CN[C@H](CC(C)C)C(=O)N[C@H]1C(=O)N[C@@H](CC(N)=O)C(=O)N[C@H]2C(=O)N[C@H]3C(=O)N[C@H](C(=O)N[C@H](C(=O)O)c4cc(O)cc(O)c4-c4cc3ccc4O)[C@H](O)c3ccc(c(Cl)c3)Oc3cc2cc(c3O[C@@H]2O[C@H](CO)[C@@H](O)[C@H](O)[C@H]2O[C@H]2C[C@](C)(N)[C@H](O)[C@H](C)O2)Oc2ccc(cc2Cl)[C@H]1O [Vancomycin]
[6]
  factor of MIC decrease (hypersensitivity) versus wild-type: 4–5 factor

## CC1(C)S[C@@H]2[C@H](NC(=O)[C@H](N)c3ccccc3)C(=O)N2[C@H]1C(=O)O [Ampicillin]
[6]
  factor of MIC decrease (hypersensitivity) versus wild-type: > 16 factor
[6]; Mycobacterium tuberculosis
  MIC: 1.6 to 3.1 µM (≈ 0.559 to 1.08 µg/mL)

## C[C@@H](O)[C@H]1C(=O)N2C(C(=O)O)=C(SCCN=CN)C[C@H]12 [Imipenem]
[2]
  resistance (MIC increase) versus wild-type: 16 fold

— PMC9558617 (ACS infectious diseases, 2022)
